Experiment: Cascade Impactor (Andersen) test, MDI actuator for stand-alone (handheld) use
Format: physicochemical
Text: The particle size of an inhalation drug may be measured by an instrument called a Cascade Impactor, which consists of multiple discs. The size of the discs is graduated to properly determine the size of the particulate matter at various stages of the Cascade Impactor, which each represent the drug delivery to different portions of the entire respiratory tract. The Cascade Impactor collects samples of the drug in a graduated manner on each disc such that the average particle size of the collected drugs can be measured for each stage.
As discussed above, the particle size of an inhalation drug, namely the API, can be measured by a Cascade Impactor (Westech Instruments), which consists of multiple stages (0-7). The particle sizes at each stage are listed in Table 8, which represents the drug delivery to different portions of the entire respiratory tract using a stand-alone MDI actuator, for example actuator 500, discussed above.
As described above, the disclosed MDI actuator nozzles may include an inner diameter that is optimized to dispense fine API particle sizes, such as API particles having a diameter of about 1.1 μm or less. Table 12, below, outlines a study of the amount percentage (%) of fine API particles having particle diameters of less than about 1.1 μm versus nozzle inner diameter size of the disclosed MDI actuators, for example MDI actuator 500. […] The general components of MDI actuator 500 was utilized, but different nozzle inner diameter sizes were tested in this study. In particular, 3 different MDI actuators were tested: (1) MDI actuator having 0.42 mm nozzle inner diameter (“MDI Actuator A”), (2) MDI actuator having 0.28 mm nozzle inner diameter (“MDI Actuator B”), and (3) MDI actuator having 0.20 mm nozzle inner diameter (“MDI Actuator C”).

CCN(CCO)CCCC(C)Nc1ccnc2cc(Cl)ccc12 (stereo not drawn) [HCQ, hydroxychloroquine]
EPM (6-filter; P6-F, <1.1 μm for Alveoli), Compared to strength (delivery rate) (Actuator A (nozzle 0.42 mm)): 21.6%
EPM (6-filter; P6-F, <1.1 μm for Alveoli), Compared to strength (delivery rate) (Actuator B (nozzle 0.28 mm)): 39.7%
EPM (6-filter; P6-F, <1.1 μm for Alveoli), Compared to strength (delivery rate) (Actuator C (nozzle 0.20 mm)): about 53.9%
Delivery Rate (Alveoli, <1.1 mcm, actuator O-0.20, 5% EtOH, 200 mcg): 44.5%
Delivery Rate (Alveoli, <1.1 mcm, actuator O-0.20, 5% EtOH, 200 mcg (Table 21)): 44.5%
Delivered <1.1 mcm (Alveoli, actuator O-0.20, 5% EtOH, 200 mcg): 89
Delivered <1.1 mcm (Alveoli, actuator O-0.20, 5% EtOH, 200 mcg (Table 21)): 89
Delivery Rate (Plate 3~5, <4.7 mcm, actuator O-0.20, 5% EtOH, 200 mcg): 50.7%
Delivered <4.7 mcm (Plate 3~5, actuator O-0.20, 5% EtOH, 200 mcg): 101.3

Reference: US20230271770A1, “Anti-Viral Pharmaceutical Formulations Administered Via Devices for Lung Targeted Delivery” (priority 2020, published 2023)
